Laboratory results published in patent US10905118B2, “Triscationic amphiphile compounds, compositions, and methods for making same” (James Madison Innovations, Inc., priority 2014, dated 2021).

Legend:
Conditions in all cases: Mueller-Hinton Broth, 37° C., 72 h
Bacillus cereus = experiment: Minimum inhibitory concentration, B. cereus; assay type: cell-based
Experimental: (§1) The MIC values of all compounds from both double-tailed series were determined for four Gram-positive (Staphylococcus aureus, Enterococcus faecalis, Streptococcus agalactiae, and Bacillus cereus) and two Gram-negative (Escherichia coli and Pseudomonas aeruginosa) strains, which are shown in Table 3.
(§2) The Gram-positive bacterial strains used tested were Staphylococcus aureus subsp. aureus ATCC® 29213™, Enterococcus faecalis ATCC® 29212™, Bacillus cereus, and Streptococcus agalactiae J48.^58 The Gram-negative bacterial strains used were Escherichia coli ATCC® 25922™ and Pseudomonas aeruginosa ATCC® 27853™. All strains were grown in 1× Mueller-Hinton Broth at 37° C. for 12-24 h. For the MIC and combination studies, bacterial suspensions were prepared by diluting overnight cultures to 5×10^6 CFU/mL in 2× Mueller-Hinton Broth, so that when amphiphile solutions are added the final broth strength is 1×.
(§3) The methods used to determine the MIC and MBC were performed as previously described and followed the standards set forth by the Clinical and Laboratory Standards Institute (See Ladow, J. E.; Warnock, D. C.; Hamill, K. M.; Simmons, K. L.; Davis, R. W.; Schwantes, C. R.; Flaherty, D. C.; Willcox, J. A. L.; Wilson-Henjum, K.; Caran, K. L.; Minbiole, K. P. C.; Seifert, K. Bicephalic amphiphile architecture affects antibacterial activity. Eur. J. Med. Chem. 2011, 46, 4219-4226 and P. A. Wayne Methods for dilution antimicrobial tests for bacteria that grow aerobically. 2009.). Briefly, compounds were serially diluted and 100 μL of each dilution were added to the wells of a 96-well flat-bottomed microtiter plate in triplicate. After adding 100 μL of the bacterial cell suspension, the plates were incubated at 37° C. for 72 h. […] The MIC was considered to be bactericidal if the MBC was the same concentration or one concentration higher in the dilution series as the MIC, per Motyl, M.; Dorso, K.; Barrett, J.; Giacobbe, R. Basic microbiological techniques used in antibacterial drug discovery. Curr. Protoc. Pharmacol. 2006, Chapter 13.

Escherichia coli = experiment: Minimum inhibitory concentration, E. coli; assay type: cell-based, Escherichia coli ATCC 25922
Experimental: as §1, §2, §3

Staphylococcus aureus = experiment: Minimum inhibitory concentration, S. aureus; assay type: cell-based, Staphylococcus aureus subsp. aureus ATCC 29213
Experimental: as §1, §2, §3

Enterococcus faecalis = experiment: Minimum inhibitory concentration, E. faecalis; assay type: cell-based, Enterococcus faecalis ATCC 29212
Experimental: as §1, §2, §3

Streptococcus agalactiae = experiment: Minimum inhibitory concentration, S. agalactiae; assay type: cell-based, Streptococcus agalactiae J48
Experimental: as §1, §2, §3

Pseudomonas aeruginosa = experiment: Minimum inhibitory concentration, P. aeruginosa; assay type: cell-based, Pseudomonas aeruginosa ATCC 27853
Experimental: as §1, §2, §3

Compound | MIC B. cereus (G+) (Bacillus cereus) [µM] | MIC E. coli (G−) (Escherichia coli) [µM] | MIC S. aureus (G+) (Staphylococcus aureus) [µM] | MIC E. faecalis (G+) (Enterococcus faecalis) [µM] | MIC S. agalactiae (G+) (Streptococcus agalactiae) [µM] | MIC P. aeruginosa (G−) (Pseudomonas aeruginosa) [µM]
CCCCCCCC[N+](C)(C)Cc1cc(C[N+](C)(C)C)cc(C[N+](C)(C)CCCCCCCC)c1.[Br-].[Br-].[Br-] [Compound 6] | >250 | >250 | >250 | >250 | >250 | >250
CCCCCCCCCCCC[N+](C)(C)Cc1cc(C[N+](C)(C)C)cc(C[N+](C)(C)C)c1.[Br-].[Br-].[Br-] [Compound S3] | 63 | >250 | 63 | 250 | 125 | >250
CCCCCCCC[N+](C)(C)Cc1cc(C[N+](C)(C)C)cc(C[N+](C)(C)C)c1.[Br-].[Br-].[Br-] [Compound S1] | >250 | >250 | >250 | >250 | >250 | >250
CCCCCCCC[N+](C)(C)Cc1cc(C[n+]2ccccc2)cc(C[N+](C)(C)CCCCCCCC)c1.[Br-].[Br-].[Br-] [Compound 1] | >250 | >250 | >250 | >250 | >250 | >250
CCCCCCCCCC[N+](C)(C)Cc1cc(C[N+](C)(C)C)cc(C[N+](C)(C)C)c1.[Br-].[Br-].[Br-] [Compound S2] | 125 | >250 | >250 | 250 | 125 | >250
